From patent US7517911B2, “3,4,5-trimethoxy phenyl-based ester compound and preparation method thereof and whitening cosmetic composition containing the same” (Amorepacific Corporation, priority 2001, dated 2009) come the findings set out here.

One data set has as its system rabbit skin. The experiment in a line: Test for skin irritation on animals (Draize P.I.I.). It is filed as in vivo, rabbits. The conditions noted are these: 1% diluted solution, 0.5 ml; for P.I.I.: measured 24 and 72 hours after application. How it is done:
The hairs on the backs of six (6) healthy male rabbits were removed. After making areas of 2.5 cm×2.5 cm on the left and right sides of the back of each rabbit, nothing was applied on the left area of the back as control area, and 1% diluted solutions of the ester compounds of Examples 1˜6 (solvent was 1,3-butyleneglycol:ethanol=7:3) were applied on the right area of the back of the rabbits with an amount of 0.5 ml, one compound for each rabbit respectively. Irritations such as erythema, rash or edema were measured 24 hours and 72 hours after the application. In addition, the degree of irritation was determined according to the conventional, “P.I.I.” (Primary Irritation Index) of Draize, and the results are shown in Table 6.

Data set [1] relates to human skin. The data set can be described thus: Test for application to human skin (patch test, CTFA Guideline). It is filed as in vivo. The following applies: for The number of volunteers having reaction, mark +: + = Intense erythema; for The number of volunteers having reaction, mark + / The number of volunteers having reaction, mark ++ / The number of volunteers having reaction, mark +++ / The number of volunteers having reaction, mark ± / The number of volunteers having reaction, mark −: 1% in patch base, n = 30; for The number of volunteers having reaction, mark ++: ++ = Intense erythema with edema; for The number of volunteers having reaction, mark +++: +++ = Intense erythema with edema &vesicle; for The number of volunteers having reaction, mark ±: ± = Mild erythema; for The number of volunteers having reaction, mark −: − = No visible reactions; for Average reaction (n = 30): {(grade × number of volunteers) × 100}/{maximum grade × total volunteers × number of test}, non-irritation standard value 1.0. How it is done:
Each of the ester compounds of Examples 1˜6 were dissolved in a patch base shown in Table 8 to be 1% concentration respectively, to prepare test samples. 20 μl of each test sample was dropped in a Finn Chamber to make a patch, and the patch was attached to antebrachial skin (test region) and fixed with micro tape. The patch was attached for 24 hours, and after removing the patch, the test region was checked with marking pen, and then the region was observed after 1 and 24 hours.

Another data set deals with guinea pig skin. The experiment in a line: Test for radiation toxicity (UVA). It is filed as in vivo. On the procedure:
The hairs on the backs of ten (10) guinea pigs were removed. After fixing the pigs, the back was divided into six (6) areas each having 2.0 cm×2.0 cm area, three (3) areas on the left side and three (3) on the right side. Right side areas were control areas prevented from being radiated, and left side areas were radiation areas. 1% (w/v) diluted solutions of ester compounds of Examples 1˜6 were applied thereto with an equal amount of 50 μl respectively, while using vehicle (1,3-butyleneglycol:ethanol=7:3) as a negative control, and using 0.1% 8-MOP(methoxypsoralene) as a positive control. After 30 minutes later, left sides of the back of the pig was shielded from light by aluminum foil, and UVA(320˜380 nm) was radiated from 10 cm distant with an final energy of 15J/cm^2 by using ultraviolet radiation device (waldmann). The skin of the guinea pig was observed after 24, 48 and 72 hours later. The irritation was graded as shown in table 5 with 0˜4 grades according to the intensity of the erythema and edema, and the sum was calculated. In the evaluation, the maximum value of the measurement that performed after 24, 48 and 72 hours later was chosen, and then the Irritation Index of an animal skin was calculated according to mathematical formula 1, and finally, the Radiation Toxicity Index was calculated according to mathematical Formula 2. Irritation Index of an animal skin=(Σ maximum value of erythema index+Σ maximum value of edema index)/number of animals [Mathematical Formula 1] Radiation Toxicity Index=(Irritation Index of an animal skin in an area of UV radiation)−(Irritation Index of an animal skin in an area UV non-radiation) [Mathematical Formula 2]

Data set [2] concerns human skin. The experiment in a line: Whitening effect on the human skin (UVB-induced pigmentation, Chromameter). It is filed as in vivo. The following applies: applied for 10 weeks after UVB, 12 male volunteers. The source says: The brachia of twelve (12) healthy volunteers (males) were attached with opaque tape having 1.5 cm diameter holes, and then irradiated with UVB (ultraviolet rays B) in 1.5˜2 times the intensity of the minimum amount to form erythema for each volunteer, to induce pigmentation. After irradiating the UVB, 1% diluted solutions of the ester compounds of Examples 1˜6 (solvent was 1,3-butyleneglycol:ethanol=7:3) were applied on the above treated brachia for ten (10) weeks (the above 1% diluted solution was not applied on one brachium), and the colors of the skins thereof were measured by Chromameter CR2002 (manufactured by Minolta; Japan) per every one week. The difference of “L”, that is, “Δ L”, the amount of the increase of brightness of skin compared with those not applied with diluted solution, was measured. For reference, measurements for the cases that 3% kojic acid and vehicle (solvent) were applied were performed.

The test system of the next data set is Mel-Ab cells. The data set can be described thus: Melanin-inhibiting effect in the melanocytes (Dooley method). It is filed as cell-based, C57BL/6. The conditions noted are these: 10 ppm in culture medium, absorbance at 400 nm, compared with cells cultured without compound.
[3] abbreviates: 1% diluted solution (1,3-butyleneglycol:ethanol=7:3).
The mark [4] stands for this setting: 1% (w/v) solution 50 μl, UVA 15J/cm^2, observed 24, 48 and 72 hours.
The mark [5] stands for this setting: 1% (w/v) solution, UVA 15J/cm^2.

With “2-methyl-5-(methylethylphenyl)-2-(3,4,5-trimethoxyphenyl)acetate [Example 2]”, in the data set on rabbit skin, the “Determination (skin irritation)” value is reported as “No irritation” and the P.I.I. is 0.345. In addition, in the data set with human skin [1] (24 hours later), the “The number of volunteers having reaction, mark +” value amounted to 0; the “The number of volunteers having reaction, mark ++” value is given as 0; the “The number of volunteers having reaction, mark +++” value (shortened to “The number … mark +++”) came out at 0; the “The number of volunteers having reaction, mark ±” value (shortened to “The number … mark ±”) is listed as 0. In addition, in the data set on human skin [1] (24 hours later), the “The number of volunteers having reaction, mark −” value (“The number … mark −” for short) is 30. Moreover, in the data set on human skin [1] (48 hours later), the “The number of volunteers having reaction, mark +” value came out at 0; the “The number of volunteers having reaction, mark ++” value came to 0; the “The number … mark +++” value was determined as 0; the “The number … mark ±” value was determined as 1. Further, the “The number … mark −” value in the data set on human skin [1] (48 hours later) is 29. Also, the “Average reaction (n = 30)” value with human skin [1] is recorded as 0.42. Further, in the data set on guinea pig skin (in vivo), the “Determination (radiation toxicity)” value was “Radiation Non-Toxic” and the “Radiation Toxicity Index” value came out at 0. Further, the “Increase of brightness of skin (Δ L)” value in the data set with human skin [2] (setting [3]) was found to be 1.51 ± 0.13. The “Melanin generation ratio (%)” value in the data set on Mel-Ab cells came to 51.2%.

“5-methyl-2-(methylethyl)phenyl-3-(3,4,5-trimethoxyphenyl)propanoate [Example 5]”: in the data set with rabbit skin, the “Determination (skin irritation)” value is recorded as “No irritation” and the P.I.I. was 0.375. Also, in the data set with human skin [1] (24 hours later), the “The number of volunteers having reaction, mark +” value was 0; the “The number of volunteers having reaction, mark ++” value is given as 0; the “The number … mark +++” value stood at 0; the “The number … mark ±” value is 0. The “The number … mark −” value with human skin [1] (24 hours later) amounted to 30. In the data set with human skin [1] (48 hours later), the “The number of volunteers having reaction, mark +” value came out at 0; the “The number of volunteers having reaction, mark ++” value is 0; the “The number … mark +++” value was found to be 0; the “The number … mark ±” value is on record as 0. Besides, the “The number … mark −” value in the data set on human skin [1] (48 hours later) was 30. Moreover, the “Average reaction (n = 30)” value with human skin [1] amounted to 0.00. For the same molecule, in the data set on guinea pig skin (in vivo), the “Determination (radiation toxicity)” value is “Radiation Non-Toxic” and the “Radiation Toxicity Index” value amounted to 0. Further, in the data set with human skin [2] (setting [3]), the “Increase of brightness of skin (Δ L)” value is 1.40 ± 0.12. Besides, the “Melanin generation ratio (%)” value in the data set on Mel-Ab cells was found to be 50.0%.

On to `COc1cc(C=CC(=O)O)cc(OC)c1OC` [3,4,5-trimethoxy cinnamic acid, reference compound], for which the “Melanin generation ratio (%)” value with Mel-Ab cells is listed as 96.3%.

For `COc1cc(CCC(=O)O)cc(OC)c1OC` [3,4,5-trimethoxy hydrocinnamic acid, reference compound], the “Melanin generation ratio (%)” value in the data set with Mel-Ab cells was 92.5%.

For `COc1cc(CC(=O)O)cc(OC)c1OC` [3,4,5-trimethoxy phenylacetic acid, reference compound], the “Melanin generation ratio (%)” value in the data set on Mel-Ab cells is 95.8%.

Take `Cc1ccc(C(C)C)cc1O` [Carvacrol, carvacrol, reference compound]: the “Melanin generation ratio (%)” value with Mel-Ab cells came to 91.5%.

Consider `COc1cc(CC(=O)Oc2cc(C)ccc2C(C)C)cc(OC)c1OC` [Example 1], for which, in the data set on rabbit skin, the “Determination (skin irritation)” value is on record as “No irritation” and the P.I.I. is given as 0.375. For the same molecule, in the data set with human skin [1] (24 hours later), the “The number of volunteers having reaction, mark +” value amounted to 0; the “The number of volunteers having reaction, mark ++” value stood at 0; the “The number … mark +++” value amounted to 0; the “The number … mark ±” value was determined as 2. The “The number … mark −” value in the data set on human skin [1] (24 hours later) amounted to 28. In the data set with human skin [1] (48 hours later), the “The number of volunteers having reaction, mark +” value was found to be 0; the “The number of volunteers having reaction, mark ++” value stood at 0; the “The number … mark +++” value was determined as 0; the “The number … mark ±” value is given as 0. Besides, the “The number … mark −” value in the data set with human skin [1] (48 hours later) was determined as 30. The “Average reaction (n = 30)” value with human skin [1] was 0.83. Further, the “Radiation Toxicity Index” value with guinea pig skin (setting [4]) is reported as 0. In addition, the “Determination (radiation toxicity)” value with guinea pig skin (setting [5]) is “Radiation Non-Toxic”. For the same molecule, the “Increase of brightness of skin (Δ L)” value in the data set on human skin [2] (setting [3]) was determined as 1.71 ± 0.25. Further, in the data set on Mel-Ab cells, the “Melanin generation ratio (%)” value turned out to be 47.8%.

Consider `COc1cc(/C=C/C(=O)Oc2cc(C)ccc2C(C)C)cc(OC)c1OC` [Example 3, 5-methyl-2-(methylethyl)phenyl(2E)-3-(3,4,5-trimethoxyphenyl)-2-propanoate], for which, in the data set on rabbit skin, the “Determination (skin irritation)” value is listed as “No irritation” and the P.I.I. was 0.375. For the same molecule, in the data set with human skin [1] (24 hours later), the “The number of volunteers having reaction, mark +” value was 0; the “The number of volunteers having reaction, mark ++” value came out at 0; the “The number … mark +++” value was found to be 0; the “The number … mark ±” value was 0. For the same molecule, in the data set with human skin [1] (24 hours later), the “The number … mark −” value is given as 30. For the same molecule, in the data set with human skin [1] (48 hours later), the “The number of volunteers having reaction, mark +” value was 0; the “The number of volunteers having reaction, mark ++” value is given as 0; the “The number … mark +++” value is reported as 0; the “The number … mark ±” value is 0. Besides, the “The number … mark −” value in the data set on human skin [1] (48 hours later) came out at 30. In addition, the “Average reaction (n = 30)” value in the data set on human skin [1] worked out at 0.00. Further, the “Radiation Toxicity Index” value with guinea pig skin (setting [4]) is given as 0. Besides, the “Determination (radiation toxicity)” value in the data set with guinea pig skin (setting [5]) is “Radiation Non-Toxic”. For the same molecule, the “Increase of brightness of skin (Δ L)” value in the data set on human skin [2] (setting [3]) came out at 1.38 ± 0.11. Besides, in the data set with Mel-Ab cells, the “Melanin generation ratio (%)” value came out at 45.6%.

Consider `COc1cc(/C=C/C(=O)Oc2cc(C(C)C)ccc2C)cc(OC)c1OC` [Example 4, 2-methyl-5-(methylethyl)phenyl(2E)-3-(3,4,5-trimethoxyphenyl)-2-propanoate], for which, in the data set with rabbit skin, the “Determination (skin irritation)” value is reported as “No irritation” and the P.I.I. stood at 0.350. Further, in the data set with human skin [1] (24 hours later), the “The number of volunteers having reaction, mark +” value amounted to 0; the “The number of volunteers having reaction, mark ++” value is recorded as 0; the “The number … mark +++” value came out at 0; the “The number … mark ±” value is 1. Further, the “The number … mark −” value with human skin [1] (24 hours later) turned out to be 29. In the data set on human skin [1] (48 hours later), the “The number of volunteers having reaction, mark +” value is given as 0; the “The number of volunteers having reaction, mark ++” value turned out to be 0; the “The number … mark +++” value is 0; the “The number … mark ±” value is given as 0. In addition, the “The number … mark −” value with human skin [1] (48 hours later) is 30. In addition, in the data set on human skin [1], the “Average reaction (n = 30)” value is 0.42. In addition, the “Radiation Toxicity Index” value with guinea pig skin (setting [4]) was determined as 0. Moreover, the “Determination (radiation toxicity)” value with guinea pig skin (setting [5]) is “Radiation Non-Toxic”. Moreover, the “Increase of brightness of skin (Δ L)” value with human skin [2] (setting [3]) is on record as 1.22 ± 0.18. The “Melanin generation ratio (%)” value in the data set on Mel-Ab cells is listed as 58.9%.

As to `O=c1cc(CO)occ1O` [Kojic acid, kojic acid, reference compound], in the data set on human skin [2] (3% kojic acid), the “Increase of brightness of skin (Δ L)” value was found to be 0.99 ± 0.11. The “Melanin generation ratio (%)” value in the data set with Mel-Ab cells was 88.0%.

Take `Cc1ccc(C(C)C)c(O)c1` [Thymol, thymol, reference compound]: in the data set with Mel-Ab cells, the “Melanin generation ratio (%)” value came to 94.5%.
